Results from paper PMC3714282, “Pharmacometabolomics of Response to Sertraline and to Placebo in Major Depressive Disorder – Possible Role for Methoxyindole Pathway” (PLoS ONE, 2013).

Test system: serum metabolites (tryptophan, tyrosine, purine pathways, antioxidants)
Experiment: LCECA metabolomic profiling of serum: change from baseline at week 1 and week 4 (all, responders, non-responders)
Format: in vivo, human
Conditions: after four week of treatment
Excerpt: Study participants were outpatients, 18–65 years of age, from various clinical sites across the United States. […] A complete description of the inclusion and exclusion used in this study can be found in Table S1. The study protocol was developed in accordance with the principles of the Declaration of Helsinki. All patients provided written informed consent. The study was sponsored and monitored by Pfizer, Inc. Each site's institutional review board approved and oversaw the study. The primary outcome measure was the HAMD17, used to assess depressive symptom severity. Measures were gathered at baseline, and weeks 1 and 4 of treatment at the patient's visits. Serum samples were collected using standard protocol at baseline, week 1 and week 4 of treatment at the clinic visits. Whole blood was collected in serum collection tubes and inverted 5–8 times. Serum samples were allowed to clot at room temperature for 60 minutes and then centrifuged at 1,300×g for 15 minutes. Following centrifugation supernatant was frozen at −80°C until analysis.
Samples were analyzed using a liquid chromatography electrochemical array (LCECA) platform that has been extensively validated and used in our prior studies in neurodegenerative and psychiatric disorders [30]–[34]. The method includes multiple compounds from the tyrosine, tryptophan, sulfur amino acids and purine pathways, and markers of oxidative stress and protection (for the list of metabolites and abbreviations see Table 1). Levels of 5-Methoxytryptamine (5-MTPM) were measured using a gas chromatography time-of-flight-mass spectrometry (GCTOF-MS) platform. Samples were prepared for analysis as previously described. During the sample preparation, pools were created from equal volumes of subaliquots of all samples. Concentrations of metabolites in the individual samples were expressed as a percentage of the concentration of those metabolites in the averaged pool.
Data preprocessing: We first removed the metabolites that have more than 40% missing values. […] Principal components analysis (PCA; SIMCA-P+12.0) was used to identify outliers. The analysis was performed for each time point. […] Subjects with ≥3 standard deviations away from the center of data cloud within two principal components (PC's) scores scatter plot were considered outliers and were removed from further analysis.
These analyses were conducted separately for the sertraline and placebo groups. Between groups t-tests were used to compare baseline to one week and baseline to four week change scores between the sertraline and placebo groups.
Signatures of response to sertraline and placebo were identified by using paired t-tests to compare week 4 metabolite levels to baseline metabolite levels in the responders and non-responders to therapy. […] These analyses were also performed to evaluate changes in ratios of individual metabolites within (e.g., 5-HT/5-HTP) and between branches of tryptophan pathway (e.g., KYN/MEL).

CN[C@H]1CC[C@@H](c2ccc(Cl)c(Cl)c2)c2ccccc21 [Sertraline, sertraline]
Change of 3-OHKY (average change of log-transformed concentration) (non-responders): 0.013 | Change of 3-OMD (average change of log-transformed concentration) (non-responders): -0.048 | Change of 4-HBAC (average change of log-transformed concentration) (non-responders): 0.19 | Change of 4-HPAC (average change of log-transformed concentration) (non-responders): 0.14 | Change of 4-HPLA (average change of log-transformed concentration) (non-responders): 0.11 | Change of 5-HIAA (average change of log-transformed concentration) (non-responders): -0.077 | Change of 5-HT (average change of log-transformed concentration) (non-responders): -1.6 | Change of 5-HTP (average change of log-transformed concentration) (non-responders): 0.24 | Change of 5-MTPOL (average change of log-transformed concentration) (non-responders): 0.093 | Change of 7-MXAN (average change of log-transformed concentration) (non-responders): 0.56 | Change of ATOCO (average change of log-transformed concentration) (non-responders): 0.47 | Change of CYS (average change of log-transformed concentration) (non-responders): -0.014 | Change of DIOHMAL (average change of log-transformed concentration) (non-responders): 0.25 | Change of DOPAC (average change of log-transformed concentration) (non-responders): -0.099 | Change of DTOCO (average change of log-transformed concentration) (non-responders): 0.52 | Change of GR (average change of log-transformed concentration) (non-responders): 0.31 | Change of GRMP (average change of log-transformed concentration) (non-responders): -0.16 | Change of GSH (average change of log-transformed concentration) (non-responders): -0.084 | Change of HGA (average change of log-transformed concentration) (non-responders): 0.63 | Change of HVA (average change of log-transformed concentration) (non-responders): 0.085 | Change of HX (average change of log-transformed concentration) (non-responders): 0.014 | Change of KYN (average change of log-transformed concentration) (non-responders): 0.066 | Change of LD (average change of log-transformed concentration) (non-responders): 0.35 | Change of MEL (average change of log-transformed concentration) (non-responders): 0.26 | Change of METH (average change of log-transformed concentration) (non-responders): 0.3 | Change of MHPG (average change of log-transformed concentration) (non-responders): -0.28 | Change of NA-5-HT (average change of log-transformed concentration) (non-responders): 0.0044 | Change of TRP (average change of log-transformed concentration) (non-responders): 0.11 | Change of TRPOL (average change of log-transformed concentration) (non-responders): 0.053 | Change of TYR (average change of log-transformed concentration) (non-responders): -0.11 | Change of UA (average change of log-transformed concentration) (non-responders): -0.095 | Change of VMA (average change of log-transformed concentration) (non-responders): 0.058 | Change of XAN (average change of log-transformed concentration) (non-responders): -0.19 | Change of XANTH (average change of log-transformed concentration) (non-responders): 0.098 | Change of 3-OHKY (average change of log-transformed concentration) (responders): 0.071 | Change of 3-OMD (average change of log-transformed concentration) (responders): 0.19 | Change of 4-HBAC (average change of log-transformed concentration) (responders): 0.07 | Change of 4-HPAC (average change of log-transformed concentration) (responders): 0.37 | Change of 4-HPLA (average change of log-transformed concentration) (responders): 0.14 | Change of 5-HIAA (average change of log-transformed concentration) (responders): -0.046 | Change of 5-HT (average change of log-transformed concentration) (responders): -2.2 | Change of 5-HTP (average change of log-transformed concentration) (responders): 0.014 | Change of 5-MTPOL (average change of log-transformed concentration) (responders): 0.17 | Change of 7-MXAN (average change of log-transformed concentration) (responders): -0.32 | Change of ATOCO (average change of log-transformed concentration) (responders): 0.76 | Change of CYS (average change of log-transformed concentration) (responders): 0.0094 | Change of DIOHMAL (average change of log-transformed concentration) (responders): 0.47 | Change of DOPAC (average change of log-transformed concentration) (responders): 0.058 | Change of DTOCO (average change of log-transformed concentration) (responders): 0.88 | Change of GR (average change of log-transformed concentration) (responders): -0.26 | Change of GRMP (average change of log-transformed concentration) (responders): 0.23 | Change of GSH (average change of log-transformed concentration) (responders): 0.096 | Change of HGA (average change of log-transformed concentration) (responders): 0.21 | Change of HVA (average change of log-transformed concentration) (responders): 0.12 | Change of HX (average change of log-transformed concentration) (responders): -0.022 | Change of KYN (average change of log-transformed concentration) (responders): 0.027 | Change of LD (average change of log-transformed concentration) (responders): -0.069 | Change of MEL (average change of log-transformed concentration) (responders): 0.68 | Change of METH (average change of log-transformed concentration) (responders): 0.12
